Measured values taken from patent publication US6949529B2, “Compositions containing lysophosphotidic acids which inhibit apoptosis and uses thereof” (Sky High, LLC, priority 1997, dated 2005).

System: rat neonatal cardiomyocytes
Experiment: Cardiomyocyte death induced by ischemia and reperfusion (in vitro model)
Type: cell-based
Conditions: mixture with PEG (FIG. 14)
Protocol: Cardiomyocytes were prepared from hearts of day-old Sprague Dawley rats by trypsinization and mechanical disaggregation (Simpson, (1985)) Circ. Res. 56:884-894. The cells were resuspended in MEM, 1×MEM vitamins (Gibco), 5% fetal bovine serum and 50 U/ml penicillin-G and pre-plated for 30 minutes to reduce contamination of non-myocytes. The non-adherent cardiac myocytes were separated and seeded in 2 ml in 35 mm dishes at a density of 3.5×10^5 viable cells per ml. The cells were allowed to adhere for 16-24 hours in a 37° C./5% CO2 humidified incubator.
For serum deprivation, the medium was replaced with fresh serum-free RPMI, whereas serum/glucose deprivation was performed using glucose-free RPMI. The induction of cell death by adriamycin or C2-ceramide was accomplished by the addition of the agent prepared in serum-free RPMI. As a model of ischemia, cultures in serum and glucose free RPMI were placed in an airtight chamber and the latter was continuously perfused with oxygen-free gas overlay of 95% N2/5% CO2 for 8 hours at 37° C. […]
Because cardiomyocytes are terminally differentiated non-dividing cells, viability was determined by measurement of the decrease in the relative number of adherent cells. […] Adherent cardiomyocytes were collected from culture dishes using 0.25% Trypsin/0.05% EDTA and counted on Coulter Counter ZM and Coulter Channelyzer 256.

Structure (SMILES): CCCCCCCC/C=C\CCCCCCCC(=O)OCC(O)COP(=O)(O)O (stereo not shown) [18:1 LPA, oleoyl-lysophosphatidic acid]
- cardiomyocyte death induced by ischemia and reperfusion: equally protect
